Test results as given in PubChem BioAssay AID2060603 (Molecular Pharmacology Branch, DTP, NCI, 2025).
Values joined by “and” are separate entries in the source; they are usually repeats but may differ in a detail not shown here. Equal values may be shown once.

Test system: 422866-222-R5-J1-PDC spheroid viability
Assay: Anticancer human tumor 422866-222-R5-J1-PDC patient-derived pancreatic adenocarcinoma cell line growth inhibition [CLK]
Details: spheroids with HUVEC and MSC; for viability, T/C: stronger effect = lower value
In short: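 Patient-derived tumor cells grown as complex spheroids with HUVEC endothelial cells and mesenchymal stem cells, treated with drug combinations. Concentrations descend in half-log steps from near clinical Cmax, or from 10 microM if Cmax unknown.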

[1] = curve of first compound, second compound 0.0316 µM
[2] = curve of first compound, second compound 0.1 µM
[3] = curve of first compound, second compound 0.316 µM
[4] = curve of first compound, second compound 1 µM
[5] = curve of first compound, second compound 3.16 µM
[6] = curve of first compound, second compound 10 µM
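Also: spheroids exposed to agents for seven days before readout.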

Work on NC(=O)C(=Cn1cnc(-c2cc(C(F)(F)F)cc(C(F)(F)F)c2)n1)c1cncnc1 + CN1CCN(c2cc(C(=O)Nc3cc4cc(-c5cnn(C)c5)ccc4cn3)ccn2)CC1 yielded an IC50 [1] greater than 3000 nM, an IC50 [2] greater than 3000 nM and an IC50 [3] of 55.8 nM. The IC50 [4] was less than 9.49 nM, the IC50 [5] was less than 9.49 nM and the IC50 [6] was less than 9.49 nM. For the same molecule, the viability, T/C (second compound 0.0316 µM, first compound 0.00949 µM) was 123%, the viability, T/C (second compound 0.0316 µM, first compound 0.03 µM) was 117% and the viability, T/C (second compound 0.0316 µM, first compound 0.0949 µM) was 80%. The viability, T/C (second compound 0.0316 µM, first compound 0.3 µM) was 48.4%, the viability, T/C (second compound 0.0316 µM, first compound 0.949 µM) was 66.3% and the viability, T/C (second compound 0.0316 µM, first compound 3 µM) was 78.4%. The viability, T/C (second compound 0.1 µM, first compound 0.00949 µM) was 110%, the viability, T/C (second compound 0.1 µM, first compound 0.03 µM) was 94.6% and the viability, T/C (second compound 0.1 µM, first compound 0.0949 µM) was 73.8%. For the same molecule, the viability, T/C (second compound 0.1 µM, first compound 0.3 µM) was 32.1%, the viability, T/C (second compound 0.1 µM, first compound 0.949 µM) was 55.6% and the viability, T/C (second compound 0.1 µM, first compound 3 µM) was 67.4%. It also gave a viability, T/C (second compound 0.316 µM, first compound 0.00949 µM) of 66.5%, a viability, T/C (second compound 0.316 µM, first compound 0.03 µM) of 63.8% and a viability, T/C (second compound 0.316 µM, first compound 0.0949 µM) of 38.2%. It also gave a viability, T/C (second compound 0.316 µM, first compound 0.3 µM) of 21.9%, a viability, T/C (second compound 0.316 µM, first compound 0.949 µM) of 21% and a viability, T/C (second compound 0.316 µM, first compound 3 µM) of 20.9%. It also gave a viability, T/C (second compound 1 µM, first compound 0.00949 µM) of 15.6%, a viability, T/C (second compound 1 µM, first compound 0.03 µM) of 14.2% and a viability, T/C (second compound 1 µM, first compound 0.0949 µM) of 15.1%. The viability, T/C (second compound 1 µM, first compound 0.3 µM) was 22.4%, the viability, T/C (second compound 1 µM, first compound 0.949 µM) was 22.9% and the viability, T/C (second compound 1 µM, first compound 3 µM) was 14.5%. For the same molecule, the viability, T/C (second compound 3.16 µM, first compound 0.00949 µM) was 12.9%, the viability, T/C (second compound 3.16 µM, first compound 0.03 µM) was 15.1% and the viability, T/C (second compound 3.16 µM, first compound 0.0949 µM) was 18.3%. For the same molecule, the viability, T/C (second compound 3.16 µM, first compound 0.3 µM) was 18.9%, the viability, T/C (second compound 3.16 µM, first compound 0.949 µM) was 19.9% and the viability, T/C (second compound 3.16 µM, first compound 3 µM) was 18.5%. The viability, T/C (second compound 10 µM, first compound 0.00949 µM) was 2.84%, the viability, T/C (second compound 10 µM, first compound 0.03 µM) was 1.47% and the viability, T/C (second compound 10 µM, first compound 0.0949 µM) was 2.11%. For the same molecule, the viability, T/C (second compound 10 µM, first compound 0.3 µM) was 1.91%, the viability, T/C (second compound 10 µM, first compound 0.949 µM) was 6.33% and the viability, T/C (second compound 10 µM, first compound 3 µM) was 9.39%.
For CCc1c2c(nc3ccc(O)cc13)-c1cc3c(c(=O)n1C2)COC(=O)[C@]3(O)CC + CNC(=O)c1ccc(Nc2nc(OC3CCCC3)c3c(-c4ccc5nc(C)oc5c4)c[nH]c3n2)c(OC)c1, the IC50 [1] was less than 3.16 nM, the IC50 [2] was less than 3.16 nM and the IC50 [3] was less than 3.16 nM. For the same molecule, the IC50 [4] was less than 3.16 nM, the IC50 [5] was less than 3.16 nM and the IC50 [6] was less than 3.16 nM. It also gave a viability, T/C (second compound 0.0316 µM, first compound 0.00316 µM) of 45.6%, a viability, T/C (second compound 0.0316 µM, first compound 0.01 µM) of 46.4% and a viability, T/C (second compound 0.0316 µM, first compound 0.0316 µM) of 51%. For the same molecule, the viability, T/C (second compound 0.0316 µM, first compound 0.1 µM) was 46.5%, the viability, T/C (second compound 0.0316 µM, first compound 0.316 µM) was 42.7% and the viability, T/C (second compound 0.0316 µM, first compound 1 µM) was 16.4%. For the same molecule, the viability, T/C (second compound 0.1 µM, first compound 0.00316 µM) was 49.1%, the viability, T/C (second compound 0.1 µM, first compound 0.01 µM) was 43.8% and the viability, T/C (second compound 0.1 µM, first compound 0.0316 µM) was 40.2%. The viability, T/C (second compound 0.1 µM, first compound 0.1 µM) was 38%, the viability, T/C (second compound 0.1 µM, first compound 0.316 µM) was 40% and the viability, T/C (second compound 0.1 µM, first compound 1 µM) was 19.6%. For the same molecule, the viability, T/C (second compound 0.316 µM, first compound 0.00316 µM) was 42.3%, the viability, T/C (second compound 0.316 µM, first compound 0.01 µM) was 33.2% and the viability, T/C (second compound 0.316 µM, first compound 0.0316 µM) was 30.9%. It also gave a viability, T/C (second compound 0.316 µM, first compound 0.1 µM) of 38.5%, a viability, T/C (second compound 0.316 µM, first compound 0.316 µM) of 27.6% and a viability, T/C (second compound 0.316 µM, first compound 1 µM) of 24.5%. The viability, T/C (second compound 1 µM, first compound 0.00316 µM) was 46.8%, the viability, T/C (second compound 1 µM, first compound 0.01 µM) was 28.1% and the viability, T/C (second compound 1 µM, first compound 0.0316 µM) was 38.2%. The viability, T/C (second compound 1 µM, first compound 0.1 µM) was 42.4%, the viability, T/C (second compound 1 µM, first compound 0.316 µM) was 20.8% and the viability, T/C (second compound 1 µM, first compound 1 µM) was 25.8%. The viability, T/C (second compound 3.16 µM, first compound 0.00316 µM) was 41.9%, the viability, T/C (second compound 3.16 µM, first compound 0.01 µM) was 38.7% and the viability, T/C (second compound 3.16 µM, first compound 0.0316 µM) was 33%. For the same molecule, the viability, T/C (second compound 3.16 µM, first compound 0.1 µM) was 39.8%, the viability, T/C (second compound 3.16 µM, first compound 0.316 µM) was 22.6% and the viability, T/C (second compound 3.16 µM, first compound 1 µM) was 23.3%. The viability, T/C (second compound 10 µM, first compound 0.00316 µM) was 31.2%, the viability, T/C (second compound 10 µM, first compound 0.01 µM) was 27.5% and the viability, T/C (second compound 10 µM, first compound 0.0316 µM) was 38.4%. It also gave a viability, T/C (second compound 10 µM, first compound 0.1 µM) of 32.7%, a viability, T/C (second compound 10 µM, first compound 0.316 µM) of 23.7% and a viability, T/C (second compound 10 µM, first compound 1 µM) of 28.7%.
In the case of CC(C)CC(NC(=O)C(Cc1ccccc1)NC(=O)c1cnccn1)B(O)O (stereo unspecified), the viability, T/C (compound 0.000949 µM) is reported as 95.5% and 91.7%, the viability, T/C (compound 0.003 µM) is reported as 64.7% and 73.9% and the viability, T/C (compound 0.00949 µM) is reported as 16.9% and 26.7%. The viability, T/C (compound 0.03 µM) was 2.66% and 2.25%, the viability, T/C (compound 0.0949 µM) was 0.86% and 0.8% and the viability, T/C (compound 0.3 µM) was 2.88% and 1.33%. For the same molecule, the IC50 (curve of compound) was 4.28 nM and 5.36 nM.
